Experimental data from the supplement of paper PMC10307832.

Assays:
Experiment in all cases: relative viability (nuclei count vs DMSO), 5 days (fraction); higher = more cells survive
[1] = compound: C1=CC=C2C(=C1)C=CC(=C2SSC3=C(C=CC4=CC=CC=C43)O)O [IPA-3] + NC(=O)Nc1cc(-c2cccc(F)c2)sc1C(=O)N[C@H]1CCCNC1 [AZD7762] (partner 0.2 µM)
Outline: (§1)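 Relative viability equals treated-well nuclei counts divided by vehicle-well nuclei counts. Counts came from 4× images of lung cancer cell lines grown in 1536-well plates for 5 days after pin-tool dosing on the day after seeding. Dosing used one drug alone or a fixed anchor-drug dose plus five library-drug doses (not always all listed) in √10 steps, and values are medians of duplicate plates.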

[2] = compound: Cc1ccc(-n2nc(C(C)(C)C)cc2NC(=O)Nc2ccc(OCCN3CCOCC3)c3ccccc23)cc1 [Doramapimod] + C[C@]1(O)C[C@@H](c2nc(-c3ccc4ccc(-c5ccccc5)nc4c3)c3c(N)nccn32)C1 [Linsitinib] (partner 1 µM)
Outline: as §1

[3] = compound: Cc1ccc(-n2nc(C(C)(C)C)cc2NC(=O)Nc2ccc(OCCN3CCOCC3)c3ccccc23)cc1 [Doramapimod] + CC(=O)c1c(C)c2cnc(Nc3ccc(N4CCNCC4)cn3)nc2n(C2CCCC2)c1=O [Palbociclib] (partner 0.5 µM)
Outline: as §1

[4] = compound: Cn1c(Nc2ccc(C(F)(F)F)cc2)nc2cc(Oc3ccnc(-c4ncc(C(F)(F)F)[nH]4)c3)ccc21 [RAF265] + CC(=O)c1c(C)c2cnc(Nc3ccc(N4CCNCC4)cn3)nc2n(C2CCCC2)c1=O [Palbociclib] (partner 0.5 µM)
Outline: as §1

Row | Cell Line | relative viability ([1]; first compound 0.2 µM) | relative viability ([1]; first compound 0.6325 µM) | relative viability ([1]; first compound 2 µM) | relative viability ([1]; first compound 6.325 µM) | relative viability ([1]; first compound 20 µM) | relative viability ([2]; first compound 0.02 µM) | relative viability ([2]; first compound 0.06325 µM) | relative viability ([2]; first compound 0.2 µM) | relative viability ([2]; first compound 0.6325 µM) | relative viability ([2]; first compound 2 µM) | relative viability ([3]; first compound 0.02 µM) | relative viability ([3]; first compound 0.06325 µM) | relative viability ([3]; first compound 0.2 µM) | relative viability ([3]; first compound 0.6325 µM) | relative viability ([3]; first compound 2 µM) | relative viability ([4]; first compound 0.01 µM) | relative viability ([4]; first compound 0.03162 µM) | relative viability ([4]; first compound 0.1 µM) | relative viability ([4]; first compound 0.3162 µM) | relative viability ([4]; first compound 1 µM)
1 | NCI-H838 | 1.05 | 0.94 | 1 | 0.967 | 1.08 | 0.9 | 1.04 | 1.02 | 1.1 | 0.994 | 0.218 | 0.217 | 0.203 | 0.225 | 0.199 | 0.203 | 0.222 | 0.193 | 0.176 | 0.154
2 | NCI-H1355 | 0.807 | 0.764 | 0.73 | 0.827 | 0.719 | 0.804 | 0.819 | 0.824 | 0.908 | 0.779 | 0.412 | 0.373 | 0.413 | 0.385 | 0.368 | 0.449 | 0.364 | 0.328 | 0.248 | 0.181
3 | NCI-H1395 | 0.377 | 0.413 | 0.423 | 0.373 | 0.345 | 1.11 | 1.04 | 1.17 | 1.13 | 0.997 | 0.67 | 0.6 | 0.64 | 0.58 | 0.583 | 0.634 | 0.56 | 0.567 | 0.597 | 0.437
4 | NCI-H1437 | 1.2 | 1.08 | 1.18 | 1.06 | 1.19 | 1.03 | 0.982 | 0.968 | 1.17 | 0.947 | 0.337 | 0.31 | 0.278 | 0.368 | 0.304 | 0.318 | 0.315 | 0.305 | 0.366 | 0.306
5 | NCI-H1651 | 0.573 | 0.473 | 0.411 | 0.554 | 0.499 | 0.92 | 0.844 | 0.923 | 0.977 | 0.917 | 0.478 | 0.523 | 0.47 | 0.511 | 0.516 | 0.508 | 0.517 | 0.504 | 0.479 | 0.47
